# Measured values reported in PubChem BioAssay (NCI).
#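 Growth conditions: 96-well plates. Treatment: test compound, 48 hours, 5 concentrations. Analysis: linear interpolation between bracketing concentrations; unreached endpoints set to highest concentration. TGI: total growth inhibition.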
# Key:
# Assay in all cases: growth of human tumour cells (NCI), 48 h
# SNB-78 CNS = system: SNB-78 CNS
# OVCAR-4 ovarian = system: OVCAR-4 ovarian
# CCRF-CEM leukemia = system: CCRF-CEM leukemia
# DLD-1 colon = system: DLD-1 colon
# NCI-H226 lung = system: NCI-H226 lung
# HT29 colon = system: HT29 colon
# LOX IMVI melanoma = system: LOX IMVI melanoma
# HOP-92 NSCLC = system: HOP-92 NSCLC
# K-562 leukemia = system: K-562 leukemia
# SF-268 CNS = system: SF-268 CNS
# KM12 colon = system: KM12 colon
# M19-MEL melanoma = system: M19-MEL melanoma
# SF-539 CNS = system: SF-539 CNS
# RXF-631 renal = system: RXF-631 renal
# OVCAR-8 ovarian = system: OVCAR-8 ovarian
# U251 CNS = system: U251 CNS
# SNB-75 CNS = system: SNB-75 CNS
# OVCAR-3 ovarian = system: OVCAR-3 ovarian
# KM20L2 colon = system: KM20L2 colon
# HL-60(TB) leukemia = system: HL-60(TB) leukemia
# HCT-15 colon = system: HCT-15 colon
# SK-MEL-28 melanoma = system: SK-MEL-28 melanoma
# SK-MEL-2 melanoma = system: SK-MEL-2 melanoma
# SW-620 colon = system: SW-620 colon
# TK-10 renal = system: TK-10 renal
# NCI-H23 lung = system: NCI-H23 lung
# UACC-257 melanoma = system: UACC-257 melanoma
# NCI-H522 lung = system: NCI-H522 lung
# COLO 205 colon = system: COLO 205 colon
# M14 melanoma = system: M14 melanoma
# IGROV1 ovarian = system: IGROV1 ovarian
# 786-0 renal = system: 786-0 renal
# UO-31 renal = system: UO-31 renal
# NCI-H460 lung = system: NCI-H460 lung
# SN12C renal = system: SN12C renal
# MOLT-4 leukemia = system: MOLT-4 leukemia
# SR leukemia = system: SR leukemia
# SNB-19 CNS = system: SNB-19 CNS
# SK-OV-3 ovarian = system: SK-OV-3 ovarian
# SF-295 CNS = system: SF-295 CNS
# LXFL 529 NSCLC = system: LXFL 529 NSCLC
# MALME-3M melanoma = system: MALME-3M melanoma
# HOP-18 NSCLC = system: HOP-18 NSCLC
# ACHN renal = system: ACHN renal
# HOP-62 NSCLC = system: HOP-62 NSCLC
# DMS 114 small cell lung = system: DMS 114 small cell lung
# RPMI-8226 leukemia = system: RPMI-8226 leukemia
# OVCAR-5 ovarian = system: OVCAR-5 ovarian
# UACC-62 melanoma = system: UACC-62 melanoma
# HCT-116 colon = system: HCT-116 colon
compound,measurement,setting,value
CN(C)CCCNc1ccc2ncn3c4ccccc4c(=O)c1c23,TGI,SNB-78 CNS,78.7 µM
same,TGI,OVCAR-4 ovarian,97.1 µM
same,TGI,CCRF-CEM leukemia,23.4 µM
same,TGI,DLD-1 colon,39.6 µM
same,TGI,NCI-H226 lung,25.9 µM
same,TGI,HT29 colon,19.6 µM
same,TGI,LOX IMVI melanoma,13.7 µM
same,TGI,HOP-92 NSCLC,59.5 µM
same,TGI,K-562 leukemia,24.1 µM
same,TGI,SF-268 CNS,40.4 µM
same,TGI,KM12 colon,20.3 µM
same,TGI,M19-MEL melanoma,30.6 µM
same,TGI,SF-539 CNS,90.8 µM
same,TGI,RXF-631 renal,26.3 µM
same,TGI,OVCAR-8 ovarian,20 µM
same,TGI,U251 CNS,> 100 µM
same,TGI,SNB-75 CNS,92.2 µM
same,TGI,OVCAR-3 ovarian,56.2 µM
same,TGI,KM20L2 colon,30.4 µM
same,TGI,HL-60(TB) leukemia,21.2 µM
same,TGI,HCT-15 colon,85.6 µM
same,TGI,SK-MEL-28 melanoma,> 100 µM
same,TGI,SK-MEL-2 melanoma,26.8 µM
same,TGI,SW-620 colon,26.5 µM
same,TGI,TK-10 renal,69.7 µM
same,TGI,NCI-H23 lung,29 µM
same,TGI,UACC-257 melanoma,61.3 µM
same,TGI,NCI-H522 lung,> 100 µM
same,TGI,COLO 205 colon,15 µM
same,TGI,M14 melanoma,41.6 µM
same,TGI,IGROV1 ovarian,33 µM
same,TGI,786-0 renal,33.2 µM
same,TGI,UO-31 renal,52.3 µM
same,TGI,NCI-H460 lung,14.5 µM
same,TGI,SN12C renal,> 100 µM
same,TGI,MOLT-4 leukemia,13 µM
same,TGI,SR leukemia,17.7 µM
same,TGI,SNB-19 CNS,> 100 µM
same,TGI,SK-OV-3 ovarian,> 100 µM
same,TGI,SF-295 CNS,39 µM
same,TGI,LXFL 529 NSCLC,> 100 µM
same,TGI,MALME-3M melanoma,49.2 µM
same,TGI,HOP-18 NSCLC,68.4 µM
same,TGI,ACHN renal,52.5 µM
same,TGI,HOP-62 NSCLC,> 100 µM
same,TGI,DMS 114 small cell lung,> 100 µM
same,TGI,RPMI-8226 leukemia,26.9 µM
same,TGI,OVCAR-5 ovarian,38.5 µM
same,TGI,UACC-62 melanoma,34.7 µM
same,TGI,HCT-116 colon,15.1 µM
